Measured values reported in publication PMC9929129, “Towards Translation of PqsR Inverse Agonists: From In Vitro Efficacy Optimization to In Vivo Proof‐of‐Principle” (Advanced Science, 2023).
Several values for one entry are separate records, joined by “and”; a condition that tells them apart may be missing. Equal entries are not always repeated.

Assays:
[1] = system: 14 PA clinical isolates from bronchiectasis patients; assay: Pyocyanin inhibition assay in clinical isolates; type: cell-based, Pseudomonas aeruginosa; conditions: 2 × 10^−6 M 24, LB-medium, 16 h
Protocol: Pyoverdine determinations. Precultures of each strain were grown 20 h at 37°C in M9 minimal […]
with 30 mM succinate, 2 mM MgSO , 10 μM FeSO and 2.5 mL L−1 of trace elements solution.[10] Next, […]
5 µl of each culture were transferred to 10 ml of M9 minimal medium devoid of iron and trace element solution, and cultured again for 24 h at 37°C with constant shaking. After incubation, the OD600 of the cultures was determined: The cell contained in 1 mL medium were harvested by centrifugation (5 min; 14,000 rpm) and the absorbance at 405 nm (A405nm) of 0.8 ml of the supernatant was determined spectrophotometrically and normalized to the OD600 of the culture measured before (i.e. A405nm, OD600-1). PA14 and PAO1 were also assayed as controls. The experiments were carried out at least in triplicates.
Pyocyanin inhibition assay. The inhibition of pyocyanin production in the clinical isolates (CIs) and the type strains (PA14 and PAO1) was tested by the treatment of LB-grown cultures incubated for 16 h at 37°C with constant shaking with 2 µM of 24/DMSO or with 2 µl of DMSO as control. Pyocyanin extraction and quantification were carried out as described in section 1.2.2. Pyocyanin concentrations (μg mL −1) were calculated by multiplication of its absorbance at 520 nm with a […]
correction factor of 17.072, and normalized to the OD600 of the culture.

[2] = target: T1, Potassium Channel hERG (human) (Homo sapiens, UniProt Q12809); assay: Cerep panel binding assay; conditions: 10 µM, [3H] Dofetilide
T1 construct: purchased Eurofins Pharma Discovery (Cerep) SafetyScreen44 Panel, ITEM P270
Protocol: (§1) 1.4 Safety Pharmacology of Compound 24
(§2) 1.4.1 Cerep panel (Eurofins)
(§3) Compound 24 was further profiled for its off-target interactions against a panel of 44 targets. The
(§4) screening was done by Eurofins Pharma Discovery within the SafetyScreen44 Panel (Cerep, ITEM
(§5) P270). In all assays binding/functional inhibition was determined at 10 µM.
(§6) Table S6. […]
Potassium Channel hERG (human) [3H] […]

[3] = target: T2, hERG (Homo sapiens, UniProt Q12809); assay: hERG safety, single cell electrophysiology; type: cell-based; conditions: read-out: hERG inhibition IC50
T2 construct: Cyprotex
Protocol: 1.4.4 Pharmacokinetic and off-target functional assays (Cyprotex)
Compound 24 was assayed at Cyprotex in functional assays for interference with important off-targets as well as important pharmacokinetic parameters. With the exception of plasma protein binding, a dose-response relationship was studied in order to calculate IC50 values.
Table S10. Information on in vitro ADMET assays performed at Cyprotex. […]
(§7) An increase in the number of colonies of at least two-fold over baseline (mean + SD of the vehicle control) and a dose response indicate a positive response. An […]
(§8) different from the vehicle control.
(§9) Where indicated, S9 fraction from the livers of Aroclor 1254-treated rats were included in the incubation at a final concentration of 4.5%. A NADPH-regenerating system was also included to ensure a steady supply of reducing equivalents.

[4] = system: Pseudomonas aeruginosa PA14; assay: Pyocyanin assay in Pseudomonas aeruginosa; type: cell-based; conditions: PA14, 16 h, read-out: IC50 Pyocyanin
Protocol: 1.2.2 Pyocyanin assay in Pseudomonas aeruginosa
Inhibition of pyocyanin biosynthesis of compounds was measured spectrophotometrically as previously described.[2] Pseudomonas aeruginosa PA14 was grown in rich medium for 16 h under agitation with and without compound. Pyocyanin was extracted from cultures with chloroform, then re-extracted with 0.2 M HCl and quantified photometrically (520 nm). IC50 values were determined from dose-response curves of compounds using at least six different concentrations and fitting with non-linear regression analysis (OriginPro 2017–2020, Originlab Corporation). […]

[5] = system: Na+ channel (site 2); assay: Cerep panel binding assay; set-up: species or system rat; conditions: 10 µM, antagonist radioligand
Protocol: as §1, §2, §3, §4, §5, §6

[6] = target: T3, BK (KCa1.1/β1) calcium-activated potassium channel (Homo sapiens, UniProt Q12791); assay: Ion channel profiling at Charles River: BK; type: cell-based; conditions: expressed in CHO cells; read-out: ESTIMATED IC50
T3 construct: host or cells: CHO cells
Protocol: (§10) 1.4.3 Ion Channel Profiling at Charles River
(§11) Table S9. Compound 24 was tested against the following ion channels at Charles River Laboratories. […]
BK (KCa1.1/β1) calcium-activated potassium channel (human >30
KCNMA1 and KCNMB1 genes) expressed in CHO cells
FASTPatch Assay IK (KCa3.1) calcium-activated potassium channel (human KCNN4 >30 gene) expressed in CHO cells […]
(§12) FLIPR Assay expressed in HEK293 cells
GABAA α5/β3/γ2 ionotropic receptor (human GABRA5, GABRB3, >30 and GABRG2 genes, expressed in HEK293 cells

[7] = target: T4, TRPA1 channel (Homo sapiens, UniProt O75762); assay: Ion channel profiling at Charles River: TRPA1; type: cell-based; conditions: expressed in CHO cells; read-out: ESTIMATED IC50
T4 construct: host or cells: CHO cells
Protocol: as §10, §11
ScreenPatch Assay Kv1.3 potassium channel (human KCNA3 gene) expressed in CHO […]
as §12
GABAA α5/β3/γ2 ionotropic receptor (human GABRA5, GABRB3, >30 and GABRG2 genes, expressed in HEK293 cells […]
TRPA1 channel (human TRPA1 gene) expressed in CHO cells >30 […]
as §7, §8, §9

T1 sequence (Q12809 whole entry): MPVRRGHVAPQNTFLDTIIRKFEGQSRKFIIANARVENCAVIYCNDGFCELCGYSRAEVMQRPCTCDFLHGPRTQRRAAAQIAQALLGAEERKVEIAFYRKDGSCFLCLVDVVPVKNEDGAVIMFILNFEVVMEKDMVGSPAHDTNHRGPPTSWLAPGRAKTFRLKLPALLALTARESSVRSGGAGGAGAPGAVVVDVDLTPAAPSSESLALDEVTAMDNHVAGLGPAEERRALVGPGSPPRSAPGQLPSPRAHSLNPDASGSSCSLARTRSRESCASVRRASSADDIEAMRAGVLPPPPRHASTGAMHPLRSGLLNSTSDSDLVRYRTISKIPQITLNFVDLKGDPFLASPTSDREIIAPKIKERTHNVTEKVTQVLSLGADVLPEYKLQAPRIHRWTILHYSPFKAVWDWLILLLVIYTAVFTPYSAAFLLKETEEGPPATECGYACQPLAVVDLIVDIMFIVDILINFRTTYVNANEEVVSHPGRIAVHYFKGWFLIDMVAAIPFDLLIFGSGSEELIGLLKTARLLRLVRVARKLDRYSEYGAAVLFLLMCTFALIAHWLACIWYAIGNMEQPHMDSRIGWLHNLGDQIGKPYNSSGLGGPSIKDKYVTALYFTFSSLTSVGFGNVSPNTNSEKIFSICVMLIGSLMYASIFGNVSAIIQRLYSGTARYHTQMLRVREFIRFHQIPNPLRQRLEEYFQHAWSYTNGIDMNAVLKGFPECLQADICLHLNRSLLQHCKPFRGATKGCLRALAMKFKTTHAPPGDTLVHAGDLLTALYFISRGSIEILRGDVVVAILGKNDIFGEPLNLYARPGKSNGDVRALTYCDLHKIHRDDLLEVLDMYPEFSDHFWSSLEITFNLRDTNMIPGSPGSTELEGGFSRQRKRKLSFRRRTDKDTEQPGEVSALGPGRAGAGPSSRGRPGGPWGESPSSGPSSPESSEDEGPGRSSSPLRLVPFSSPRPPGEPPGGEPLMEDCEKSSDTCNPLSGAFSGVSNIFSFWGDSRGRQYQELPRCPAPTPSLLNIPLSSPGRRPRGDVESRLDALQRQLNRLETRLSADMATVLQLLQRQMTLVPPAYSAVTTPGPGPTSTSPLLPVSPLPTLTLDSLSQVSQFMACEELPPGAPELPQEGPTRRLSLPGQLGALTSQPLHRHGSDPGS
T2 sequence (Q12809 whole entry): as above
T3 sequence (Q12791 whole entry): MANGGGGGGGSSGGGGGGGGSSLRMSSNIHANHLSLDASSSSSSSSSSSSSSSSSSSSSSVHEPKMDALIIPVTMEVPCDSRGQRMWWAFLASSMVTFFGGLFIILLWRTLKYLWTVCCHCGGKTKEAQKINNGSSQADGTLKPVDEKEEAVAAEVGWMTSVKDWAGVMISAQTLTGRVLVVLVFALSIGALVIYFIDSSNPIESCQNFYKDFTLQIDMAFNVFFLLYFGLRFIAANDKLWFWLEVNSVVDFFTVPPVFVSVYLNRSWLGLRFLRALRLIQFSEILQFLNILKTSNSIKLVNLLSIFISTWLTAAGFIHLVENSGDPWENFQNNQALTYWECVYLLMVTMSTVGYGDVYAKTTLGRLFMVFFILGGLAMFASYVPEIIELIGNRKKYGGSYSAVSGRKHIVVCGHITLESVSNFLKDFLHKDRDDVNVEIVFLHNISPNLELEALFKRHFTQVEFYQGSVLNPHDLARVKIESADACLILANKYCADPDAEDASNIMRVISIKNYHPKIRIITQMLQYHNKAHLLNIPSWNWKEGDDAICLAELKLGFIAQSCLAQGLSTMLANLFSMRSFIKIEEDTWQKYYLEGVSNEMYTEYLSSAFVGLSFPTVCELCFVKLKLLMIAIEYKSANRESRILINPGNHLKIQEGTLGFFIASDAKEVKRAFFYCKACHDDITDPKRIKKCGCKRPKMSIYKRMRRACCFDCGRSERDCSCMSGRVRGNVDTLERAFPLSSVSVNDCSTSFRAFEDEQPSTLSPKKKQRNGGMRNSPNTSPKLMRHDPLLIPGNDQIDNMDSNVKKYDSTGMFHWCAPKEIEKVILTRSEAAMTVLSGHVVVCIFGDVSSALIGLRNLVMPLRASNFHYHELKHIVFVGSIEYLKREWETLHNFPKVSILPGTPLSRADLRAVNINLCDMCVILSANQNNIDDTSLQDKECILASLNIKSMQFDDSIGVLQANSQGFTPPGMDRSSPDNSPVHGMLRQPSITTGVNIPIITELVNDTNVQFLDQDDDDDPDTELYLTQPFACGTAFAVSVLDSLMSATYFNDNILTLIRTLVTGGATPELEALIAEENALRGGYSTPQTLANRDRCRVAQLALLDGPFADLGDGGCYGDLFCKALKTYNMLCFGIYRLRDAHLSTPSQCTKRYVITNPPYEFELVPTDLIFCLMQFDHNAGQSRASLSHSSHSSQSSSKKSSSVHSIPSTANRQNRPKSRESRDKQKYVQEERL
T3 sequence (Q16558 whole entry partner): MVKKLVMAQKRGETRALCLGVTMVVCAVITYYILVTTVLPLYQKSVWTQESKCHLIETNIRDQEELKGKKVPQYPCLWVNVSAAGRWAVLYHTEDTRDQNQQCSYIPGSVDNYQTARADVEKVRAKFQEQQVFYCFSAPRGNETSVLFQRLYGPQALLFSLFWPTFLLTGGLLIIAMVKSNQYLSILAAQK
T4 sequence (O75762 whole entry): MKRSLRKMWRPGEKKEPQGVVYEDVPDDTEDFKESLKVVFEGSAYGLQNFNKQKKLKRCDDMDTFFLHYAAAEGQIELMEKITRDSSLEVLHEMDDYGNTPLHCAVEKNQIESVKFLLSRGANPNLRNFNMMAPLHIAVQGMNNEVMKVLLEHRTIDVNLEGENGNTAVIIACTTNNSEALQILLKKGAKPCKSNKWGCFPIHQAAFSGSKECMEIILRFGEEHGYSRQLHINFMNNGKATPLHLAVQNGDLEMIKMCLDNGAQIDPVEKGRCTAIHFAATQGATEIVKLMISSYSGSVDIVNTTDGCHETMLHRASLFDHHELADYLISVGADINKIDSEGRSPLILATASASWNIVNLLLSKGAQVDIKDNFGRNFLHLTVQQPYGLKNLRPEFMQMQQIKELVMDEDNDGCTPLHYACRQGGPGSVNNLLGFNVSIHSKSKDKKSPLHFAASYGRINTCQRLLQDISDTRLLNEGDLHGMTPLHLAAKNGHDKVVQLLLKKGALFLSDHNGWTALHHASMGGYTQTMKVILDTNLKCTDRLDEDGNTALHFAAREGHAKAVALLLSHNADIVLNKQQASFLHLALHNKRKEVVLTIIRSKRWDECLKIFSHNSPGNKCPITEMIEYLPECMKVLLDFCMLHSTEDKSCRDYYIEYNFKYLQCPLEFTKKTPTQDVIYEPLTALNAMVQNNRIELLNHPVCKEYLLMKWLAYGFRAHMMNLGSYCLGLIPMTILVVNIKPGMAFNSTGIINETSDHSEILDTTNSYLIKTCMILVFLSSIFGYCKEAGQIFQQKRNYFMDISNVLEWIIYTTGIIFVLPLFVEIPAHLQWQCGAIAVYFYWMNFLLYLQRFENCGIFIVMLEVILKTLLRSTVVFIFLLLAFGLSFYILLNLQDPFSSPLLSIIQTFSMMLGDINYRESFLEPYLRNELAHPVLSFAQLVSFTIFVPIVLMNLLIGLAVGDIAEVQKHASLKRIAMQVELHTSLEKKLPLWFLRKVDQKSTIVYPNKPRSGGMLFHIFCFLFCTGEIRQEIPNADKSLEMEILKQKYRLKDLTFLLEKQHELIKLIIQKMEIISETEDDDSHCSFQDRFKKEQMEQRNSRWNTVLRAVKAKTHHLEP

CC(C)Oc1ccc(-c2ncc(CNc3ccnc(C(F)(F)F)c3)cn2)cc1Cl [Compound 24]
Production of pyocyanin by clinical isolates [1]: dramatic reduction
BINDING (%) [2]: 73.1% and > 50%
IC50 [3]: 15.8 µM
IC50 [4]: 0.245 ± 0.04 µM
BINDING (%) [5]: 57.2% and > 50%
IC50 [6]: > 30 µM
IC50 [7]: > 30 µM
